Measured values published in patent US20080280837A1, “Biologically Active Compounds with Anti-Angiogenic Properties” (priority 2004, published 2008).

Each compound was assayed against T1, Human SST5 somatostatin receptor (SSTR5) (Homo sapiens, UniProt P35346) (assay: Filter plate assay for SST5 receptor, displacement of [125I]SST-14). Conditions: 0.5 uM.
T1 construct: expressed in transfected cells; host or cells: HEK-293 EBNA
T1 sequence (P35346 whole entry): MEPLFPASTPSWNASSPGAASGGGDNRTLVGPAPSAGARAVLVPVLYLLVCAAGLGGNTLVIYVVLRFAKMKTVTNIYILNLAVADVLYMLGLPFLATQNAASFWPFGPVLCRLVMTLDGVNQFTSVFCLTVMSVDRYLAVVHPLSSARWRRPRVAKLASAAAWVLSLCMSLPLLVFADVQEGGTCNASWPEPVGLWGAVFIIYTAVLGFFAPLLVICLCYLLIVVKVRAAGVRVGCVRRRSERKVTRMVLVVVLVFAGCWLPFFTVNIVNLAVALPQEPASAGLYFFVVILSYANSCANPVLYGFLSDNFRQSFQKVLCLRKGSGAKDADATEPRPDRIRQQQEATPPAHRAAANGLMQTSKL
Format: binding
Procedure, shortened: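 HEK-293 EBNA membranes expressing human SST5 (5.5 μg) incubated 60 min at 25 °C with 4 nM [125I]SST-14 and compound in pH 7.5 Tris/EGTA/MgCl2/sucrose buffer. Bound radioactivity collected on PEI-coated glass fiber filters and counted; triplicate 1:5 dilution series from 125 μM, non-specific binding with excess cold ligand.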
With `COC[C@H]1OC(OCc2ccc(Cl)cc2)[C@H](NC(=O)CCNC(=N)N)[C@H](OCc2ccc(-c3ccccc3)cc2)[C@@H]1O` (stereo partly shown) [Compound 99] the “SSTR5 Inhib 0.5 uM % (inhibition of binding of SST-14 to SSTR5)” value (“SSTR5 Inhib 0.5 uM %” for short) was 43%. For `COC[C@H]1OC(OCc2ccccc2)[C@H](NC(=O)CCCNC(=N)N)[C@H](OCc2ccc3ccccc3c2)[C@@H]1O` (stereo partly shown) [Compound 100], the “SSTR5 Inhib 0.5 uM %” value was 59%. `COC[C@H]1OC(OCc2ccc(Cl)cc2)[C@H](NC(=O)CCNC(=N)N)[C@@H](OCc2ccc(-c3ccccc3)cc2)[C@@H]1O` (stereo partly shown) [Compound 101] was tested, and the “SSTR5 Inhib 0.5 uM %” value was 50%. With `COC[C@H]1OC(OCc2ccccc2)[C@H](NC(=O)CCNC(=N)N)[C@H](OCc2ccc(Cl)cc2)[C@@H]1O` (stereo partly shown) [Compound 102] the “SSTR5 Inhib 0.5 uM %” value was 42%. `COC[C@H]1OC(OCc2ccc3ccccc3c2)[C@H](NC(=O)CCCNC(=N)N)[C@@H](OCc2ccc(Cl)cc2)[C@@H]1O` (stereo partly shown) [Compound 103] was tested, and the “SSTR5 Inhib 0.5 uM %” value was 48%. `COC[C@H]1OC(OCc2ccc3ccccc3c2)[C@H](NC(=O)CCCNC(=N)N)[C@@H](OCc2ccc3ccccc3c2)[C@@H]1O` (stereo partly shown) [Compound 104] was tested, and the “SSTR5 Inhib 0.5 uM %” value was 47%. With `CSC1O[C@H](COCc2ccc3ccccc3c2)[C@@H](O)[C@@H](OCc2ccccc2)[C@H]1NC(=O)CCN` (stereo partly shown) [Compound 105] the “SSTR5 Inhib 0.5 uM %” value was 44%. `COC[C@H]1OC(OCCc2ccccc2)[C@H](NC(=O)CCN)[C@H](OCc2ccccc2)[C@@H]1O` (stereo partly shown) [Compound 106] was tested, and the “SSTR5 Inhib 0.5 uM %” value was 53%. With `COC[C@H]1OC(OCc2ccc(-c3ccccc3)cc2)[C@H](NC(=O)CCCNC(=N)N)[C@@H](OCc2ccc3ccccc3c2)[C@@H]1O` (stereo partly shown) [Compound 107] the “SSTR5 Inhib 0.5 uM %” value was 54%. For `COC[C@H]1OC(OCc2ccc(-c3ccccc3)cc2)[C@H](NC(=O)CCNC(=N)N)[C@@H](OCc2ccc(Cl)cc2)[C@@H]1O` (stereo partly shown) [Compound 108], the “SSTR5 Inhib 0.5 uM %” value was 47%. With `CSC1O[C@H](COCc2ccccc2)[C@@H](O)[C@@H](OCc2ccc3ccccc3c2)[C@H]1NC(=O)CCN` (stereo partly shown) [Compound 109] the “SSTR5 Inhib 0.5 uM %” value was 44%. In the case of `COC[C@H]1OC(OCc2ccccc2)[C@H](NC(=O)CCCN)[C@@H](OCc2ccc(Cl)cc2)[C@@H]1O` (stereo partly shown) [Compound 110], the “SSTR5 Inhib 0.5 uM %” value is reported as 45%. With `CSC1O[C@H](COCc2ccc(Cl)cc2)[C@@H](O)[C@@H](OCc2ccc(-c3ccccc3)cc2)[C@H]1NC(=O)CNC(=N)N` (stereo partly shown) [Compound 111] the “SSTR5 Inhib 0.5 uM %” value was 36%. For `COC[C@H]1OC(OCc2ccccc2)[C@H](NC(=O)CCNC(=N)N)[C@H](OCc2ccccc2)[C@@H]1O` (stereo partly shown) [Compound 112], the “SSTR5 Inhib 0.5 uM %” value was 58%. In the case of `COC[C@H]1OC(OCc2ccc(Cl)cc2)[C@H](NC(=O)CCCN)[C@@H](OCc2cccc(O)c2)[C@@H]1O` (stereo partly shown) [Compound 113], the “SSTR5 Inhib 0.5 uM %” value is reported as 50%. In the case of `CSC1O[C@H](COCc2ccc3ccccc3c2)[C@@H](O)[C@@H](OCc2ccc3ccccc3c2)[C@H]1NC(=O)CCNC(=N)N` (stereo partly shown) [Compound 114], the “SSTR5 Inhib 0.5 uM %” value is reported as 47%. In the case of `COC1C(O)C(COCc2ccc3ccccc3c2)OC(OCc2ccc3ccccc3c2)C1NC(=O)CCNC(=N)N` (stereo not shown) [Compound 115], the “SSTR5 Inhib 0.5 uM %” value is reported as 50%. `CSC1O[C@H](COCc2ccc3ccccc3c2)[C@@H](O)[C@@H](OCc2ccc(Cl)cc2)[C@H]1NC(=O)CNC(=N)N` (stereo partly shown) [Compound 116] was tested, and the “SSTR5 Inhib 0.5 uM %” value was 42%. In the case of `COC[C@H]1OC(OCc2ccc(Cl)cc2)[C@H](NC(=O)CCCN)[C@H](OCc2ccccc2)[C@@H]1O` (stereo partly shown) [Compound 117], the “SSTR5 Inhib 0.5 uM %” value is reported as 46%. `CSC1O[C@H](COCc2ccccc2)[C@@H](O)[C@@H](OCc2ccc(Cl)cc2)[C@H]1NC(=O)CCNC(=N)N` (stereo partly shown) [Compound 118] was tested, and the “SSTR5 Inhib 0.5 uM %” value was 37%.

Same assay, conditions: 10 uM
For `COC[C@H]1OC(OCc2ccc(Cl)cc2)[C@H](NC(=O)CCNC(=N)N)[C@H](OCc2ccc(-c3ccccc3)cc2)[C@@H]1O` (stereo partly shown) [Compound 99], the “SSTR5 Inhib 10 uM % (inhibition of binding of SST-14 to SSTR5)” value (shortened to “SSTR5 Inhib 10 uM %”) was 84%. In the case of `COC[C@H]1OC(OCc2ccccc2)[C@H](NC(=O)CCCNC(=N)N)[C@H](OCc2ccc3ccccc3c2)[C@@H]1O` (stereo partly shown) [Compound 100], the “SSTR5 Inhib 10 uM %” value is reported as 84%. `COC[C@H]1OC(OCc2ccc(Cl)cc2)[C@H](NC(=O)CCNC(=N)N)[C@@H](OCc2ccc(-c3ccccc3)cc2)[C@@H]1O` (stereo partly shown) [Compound 101] was tested, and the “SSTR5 Inhib 10 uM %” value was 84%. `COC[C@H]1OC(OCc2ccccc2)[C@H](NC(=O)CCNC(=N)N)[C@H](OCc2ccc(Cl)cc2)[C@@H]1O` (stereo partly shown) [Compound 102] was tested, and the “SSTR5 Inhib 10 uM %” value was 84%. `COC[C@H]1OC(OCc2ccc3ccccc3c2)[C@H](NC(=O)CCCNC(=N)N)[C@@H](OCc2ccc(Cl)cc2)[C@@H]1O` (stereo partly shown) [Compound 103] was tested, and the “SSTR5 Inhib 10 uM %” value was 84%. In the case of `COC[C@H]1OC(OCc2ccc3ccccc3c2)[C@H](NC(=O)CCCNC(=N)N)[C@@H](OCc2ccc3ccccc3c2)[C@@H]1O` (stereo partly shown) [Compound 104], the “SSTR5 Inhib 10 uM %” value is reported as 84%. With `CSC1O[C@H](COCc2ccc3ccccc3c2)[C@@H](O)[C@@H](OCc2ccccc2)[C@H]1NC(=O)CCN` (stereo partly shown) [Compound 105] the “SSTR5 Inhib 10 uM %” value was 83%. For `COC[C@H]1OC(OCCc2ccccc2)[C@H](NC(=O)CCN)[C@H](OCc2ccccc2)[C@@H]1O` (stereo partly shown) [Compound 106], the “SSTR5 Inhib 10 uM %” value was 83%. For `COC[C@H]1OC(OCc2ccc(-c3ccccc3)cc2)[C@H](NC(=O)CCCNC(=N)N)[C@@H](OCc2ccc3ccccc3c2)[C@@H]1O` (stereo partly shown) [Compound 107], the “SSTR5 Inhib 10 uM %” value was 83%. In the case of `COC[C@H]1OC(OCc2ccc(-c3ccccc3)cc2)[C@H](NC(=O)CCNC(=N)N)[C@@H](OCc2ccc(Cl)cc2)[C@@H]1O` (stereo partly shown) [Compound 108], the “SSTR5 Inhib 10 uM %” value is reported as 83%. `CSC1O[C@H](COCc2ccccc2)[C@@H](O)[C@@H](OCc2ccc3ccccc3c2)[C@H]1NC(=O)CCN` (stereo partly shown) [Compound 109] was tested, and the “SSTR5 Inhib 10 uM %” value was 83%. For `COC[C@H]1OC(OCc2ccccc2)[C@H](NC(=O)CCCN)[C@@H](OCc2ccc(Cl)cc2)[C@@H]1O` (stereo partly shown) [Compound 110], the “SSTR5 Inhib 10 uM %” value was 83%. With `CSC1O[C@H](COCc2ccc(Cl)cc2)[C@@H](O)[C@@H](OCc2ccc(-c3ccccc3)cc2)[C@H]1NC(=O)CNC(=N)N` (stereo partly shown) [Compound 111] the “SSTR5 Inhib 10 uM %” value was 83%. In the case of `COC[C@H]1OC(OCc2ccccc2)[C@H](NC(=O)CCNC(=N)N)[C@H](OCc2ccccc2)[C@@H]1O` (stereo partly shown) [Compound 112], the “SSTR5 Inhib 10 uM %” value is reported as 83%. For `COC[C@H]1OC(OCc2ccc(Cl)cc2)[C@H](NC(=O)CCCN)[C@@H](OCc2cccc(O)c2)[C@@H]1O` (stereo partly shown) [Compound 113], the “SSTR5 Inhib 10 uM %” value was 83%. With `CSC1O[C@H](COCc2ccc3ccccc3c2)[C@@H](O)[C@@H](OCc2ccc3ccccc3c2)[C@H]1NC(=O)CCNC(=N)N` (stereo partly shown) [Compound 114] the “SSTR5 Inhib 10 uM %” value was 82%. `COC1C(O)C(COCc2ccc3ccccc3c2)OC(OCc2ccc3ccccc3c2)C1NC(=O)CCNC(=N)N` (stereo not shown) [Compound 115] was tested, and the “SSTR5 Inhib 10 uM %” value was 82%. In the case of `CSC1O[C@H](COCc2ccc3ccccc3c2)[C@@H](O)[C@@H](OCc2ccc(Cl)cc2)[C@H]1NC(=O)CNC(=N)N` (stereo partly shown) [Compound 116], the “SSTR5 Inhib 10 uM %” value is reported as 82%. `COC[C@H]1OC(OCc2ccc(Cl)cc2)[C@H](NC(=O)CCCN)[C@H](OCc2ccccc2)[C@@H]1O` (stereo partly shown) [Compound 117] was tested, and the “SSTR5 Inhib 10 uM %” value was 82%. With `CSC1O[C@H](COCc2ccccc2)[C@@H](O)[C@@H](OCc2ccc(Cl)cc2)[C@H]1NC(=O)CCNC(=N)N` (stereo partly shown) [Compound 118] the “SSTR5 Inhib 10 uM %” value was 81%.
